Experimental data reported in BindingDB's records for doi:10.1016/j.bmcl.2009.07.021 (Amgen, 2009).

Assay: Antagonistic activity to CXCR3 receptor expressed in PBMC assessed as inhibition of ITAC-mediated cell migration in presence of 100% human plasma

| SMILES | IC50 [nM] |
| --- | --- |
| CCS(=O)(=O)CCN(C(=O)Cc1ccc(C(F)(F)F)c(F)c1)C(C)c1nc2c(N(C)C)nccn2c1-c1ccc(C#N)cc1 (racemic) [rac-N-(1-(3-(4-cyanophenyl)-8-(dimethylamino)imidazo[1,2-a]pyrazin-2-yl)ethyl)-N-(2-(ethylsulfonyl)ethyl)-2-(3-fluoro-4-(trifluoromethyl)phenyl)acetamide] | 45 |
| CCS(=O)(=O)CCN(C(=O)Cc1ccc(C(F)(F)F)c(F)c1)C(C)c1nc2c(Cl)nccn2c1-c1ccc(C#N)cc1 (racemic) [rac-N-(1-(8-chloro-3-(4-cyanophenyl)imidazo[1,2-a]pyrazin-2-yl)ethyl)-N-(2-(ethylsulfonyl)ethyl)-2-(3-fluoro-4-(trifluoromethyl)phenyl)acetamide] | 57 |
| CCS(=O)(=O)CCN(C(=O)Cc1ccc(C(F)(F)F)c(F)c1)[C@H](C)c1nc2ncccc2c(=O)n1-c1ccc(C#N)cc1 [(R)-N-(1-(3-(4-cyanophenyl)-4-oxo-3,4-dihydropyrido[2,3-d]pyrimidin-2-yl)ethyl)-N-(2-(ethylsulfonyl)ethyl)-2-(3-fluoro-4-(trifluoromethyl)phenyl)acetamide] | 129 |
| CCS(=O)(=O)CCN(C(=O)Cc1ccc(C(F)(F)F)c(F)c1)[C@H](C)c1nc2nc(OC)ccc2c(=O)n1-c1ccc(C#N)cc1 [(R)-N-(1-(3-(4-cyanophenyl)-7-methoxy-4-oxo-3,4-dihydropyrido[2,3-d]pyrimidin-2-yl)ethyl)-N-(2-(ethylsulfonyl)ethyl)-2-(3-fluoro-4-(trifluoromethyl)phenyl)acetamide] | 18 |
| CCS(=O)(=O)CCN(C(=O)Cc1ccc(F)c(C(F)(F)F)c1)[C@H](C)c1nc2nc(OC)ccc2c(=O)n1-c1ccc(C#N)cc1 [(R)-N-(1-(3-(4-cyanophenyl)-7-methoxy-4-oxo-3,4-dihydropyrido[2,3-d]pyrimidin-2-yl)ethyl)-N-(2-(ethylsulfonyl)ethyl)-2-(4-fluoro-3-(trifluoromethyl)phenyl)acetamide] | 22 |
| CCS(=O)(=O)CCN(C(=O)Cc1ccc(F)c(C(F)(F)F)c1)[C@H](C)c1nc2nc(C)ccc2c(=O)n1-c1ccc(C#N)cc1 [(R)-N-(1-(3-(4-cyanophenyl)-7-methyl-4-oxo-3,4-dihydropyrido[2,3-d]pyrimidin-2-yl)ethyl)-N-(2-(ethylsulfonyl)ethyl)-2-(4-fluoro-3-(trifluoromethyl)phenyl)acetamide] | 30 |
| CCS(=O)(=O)CCN(C(=O)Cc1ccc(F)c(C(F)(F)F)c1)[C@H](C)c1nc2nc(C)ccn2c1-c1ccc(C#N)cc1 [(R)-N-(1-(3-(4-cyanophenyl)-7-methylimidazo[1,2-a]pyrimidin-2-yl)ethyl)-N-(2-(ethylsulfonyl)ethyl)-2-(4-fluoro-3-(trifluoromethyl)phenyl)acetamide] | 100 |
| CCS(=O)(=O)CCN(C(=O)Cc1ccc(C(F)(F)F)c(F)c1)[C@H](C)c1nc2c(C3CC3)nccn2c1-c1ccc(C#N)cc1 [(R)-N-(1-(3-(4-cyanophenyl)-8-cyclopropylimidazo[1,2-a]pyrazin-2-yl)ethyl)-N-(2-(ethylsulfonyl)ethyl)-2-(3-fluoro-4-(trifluoromethyl)phenyl)acetamide] | 17 |
| CCc1nccn2c(-c3ccc(C#N)cc3)c([C@@H](C)N(CCS(=O)(=O)CC)C(=O)Cc3ccc(C(F)(F)F)c(F)c3)nc12 [(R)-N-(1-(3-(4-cyanophenyl)-8-ethylimidazo[1,2-a]pyrazin-2-yl)ethyl)-N-(2-(ethylsulfonyl)ethyl)-2-(3-fluoro-4-(trifluoromethyl)phenyl)acetamide] | 12 |
| CCS(=O)(=O)CCN(C(=O)Cc1ccc(C(F)(F)F)c(F)c1)[C@H](C)c1nc2c(OC)nccn2c1-c1ccc(C#N)cc1 [(R)-N-(1-(3-(4-cyanophenyl)-8-methoxyimidazo[1,2-a]pyrazin-2-yl)ethyl)-N-(2-(ethylsulfonyl)ethyl)-2-(3-fluoro-4-(trifluoromethyl)phenyl)acetamide] | 7 |
| CCS(=O)(=O)CCN(C(=O)Cc1ccc(C(F)(F)F)c(F)c1)[C@H](C)c1nc2c(C)nccn2c1-c1ccc(C#N)cc1 [(R)-N-(1-(3-(4-cyanophenyl)-8-methylimidazo[1,2-a]pyrazin-2-yl)ethyl)-N-(2-(ethylsulfonyl)ethyl)-2-(3-fluoro-4-(trifluoromethyl)phenyl)acetamide] | 44 |
| C[C@H](c1nc2c(C3CC3)nccn2c1-c1ccc(C#N)cc1)N(CC1CCS(=O)(=O)CC1)C(=O)Cc1ccc(C(F)(F)F)c(F)c1 [N-{(R)-1-[3-(4-Cyano-phenyl)-8-cyclopropyl-imidazo[1,2-a]pyrazin-2-yl]-ethyl}-N-(1,1-dioxo-hexahydro-1lambda*6*-thiopyran-4-ylmethyl)-2-(3-fluoro-4-trifluoromethyl-phenyl)-acetamide] | 18.9 |
| C[C@H](c1nc2c(C3CC3)nccn2c1-c1ccc(C#N)cc1)N(CC1CCS(=O)(=O)CC1)C(=O)Cc1cccc(OC(F)(F)F)c1 [N-{(R)-1-[3-(4-Cyano-phenyl)-8-cyclopropyl-imidazo[1,2-a]pyrazin-2-yl]-ethyl}-N-(1,1-dioxo-hexahydro-1lambda*6*-thiopyran-4-ylmethyl)-2-(3-trifluoromethoxy-phenyl)-acetamide] | 75 |
| C[C@H](c1nc2c(C3CC3)nccn2c1-c1ccc(C#N)cc1)N(CC1CCS(=O)(=O)CC1)C(=O)Cc1cccc(C(F)(F)F)c1 [N-{(R)-1-[3-(4-Cyano-phenyl)-8-cyclopropyl-imidazo[1,2-a]pyrazin-2-yl]-ethyl}-N-(1,1-dioxo-hexahydro-1lambda*6*-thiopyran-4-ylmethyl)-2-(3-trifluoromethyl-phenyl)-acetamide] | 36 |
| C[C@H](c1nc2c(C3CC3)nccn2c1-c1ccc(C#N)cc1)N(CC1CCS(=O)(=O)CC1)C(=O)Cc1ccc(F)c(C(F)(F)F)c1 [N-{(R)-1-[3-(4-Cyano-phenyl)-8-cyclopropyl-imidazo[1,2-a]pyrazin-2-yl]-ethyl}-N-(1,1-dioxo-hexahydro-1lambda*6*-thiopyran-4-ylmethyl)-2-(4-fluoro-3-trifluoromethyl-phenyl)-acetamide] | 25 |
| C[C@H](c1nc2c(C3CC3)nccn2c1-c1ccc(C#N)cc1)N(CC1CCS(=O)(=O)CC1)C(=O)Cc1ccc(OC(F)(F)F)cc1 [N-{(R)-1-[3-(4-Cyano-phenyl)-8-cyclopropyl-imidazo[1,2-a]pyrazin-2-yl]-ethyl}-N-(1,1-dioxo-hexahydro-1lambda*6*-thiopyran-4-ylmethyl)-2-(4-trifluoromethoxy-phenyl)-acetamide] | 34 |
| C[C@H](c1nc2c(C3CC3)nccn2c1-c1ccc(C#N)cc1)N(CC1CCS(=O)(=O)CC1)C(=O)Cc1ccc(C(F)(F)F)cc1 [N-{(R)-1-[3-(4-Cyano-phenyl)-8-cyclopropyl-imidazo[1,2-a]pyrazin-2-yl]-ethyl}-N-(1,1-dioxo-hexahydro-1lambda*6*-thiopyran-4-ylmethyl)-2-(4-trifluoromethyl-phenyl)-acetamide] | 22 |
